Data as given in US10653689B2, “Combination-based treatment method” (priority 2014, dated 2020).

Test system: BRCA1-deficient human breast cancer cell line, MX-1
Assay: Tumor growth delay in MX-1 human breast cancer model in mice
Format: in vivo
Design: Median TTE: unit not given beside the values
Description: Cancerous cells from the BRCA1-deficient human breast cancer cell line, MX-1, were injected subcutaneously in female mice. […]
Animal weight, clinical observations and tumor volume were monitored twice/week until the endpoint (2000 mm^3 of tumor volume or Day 88) was met.
Efficacy was measured by tumor growth delay and regression response rate.

[1] = rucaparib 30 mg/kg po q.d. × 21
[2] = rucaparib 150 mg/kg po q.d. × 21

“pentaerythritol-based multi-arm polymer conjugate of irinotecan [PBMAPCI]” was tested, and the “Median TTE” value (PBMAPCI 10 mg/kg iv qwk × 4) was 57, the “Regressions CR” value (PBMAPCI 10 mg/kg iv qwk × 4) was 10% and the “Regressions PR” value (PBMAPCI 10 mg/kg iv qwk × 4) was 0%. For the same compound, the “Regressions TFS” value (PBMAPCI 10 mg/kg iv qwk × 4) was 10%, the “Statistical Results For Groups Tested” value (PBMAPCI 10 mg/kg iv qwk × 4) was “Significant against vehicle (p ≤ 0.001)” and the T-C (PBMAPCI 10 mg/kg iv qwk × 4) was 32 days. The TGD (PBMAPCI 10 mg/kg iv qwk × 4) was 129%, the “Median TTE” value (PBMAPCI 50 mg/kg iv qwk × 4) was 88 and the “Regressions CR” value (PBMAPCI 50 mg/kg iv qwk × 4) was 100%. The “Regressions PR” value (PBMAPCI 50 mg/kg iv qwk × 4) was 0%, the “Regressions TFS” value (PBMAPCI 50 mg/kg iv qwk × 4) was 100% and the “Statistical Results For Groups Tested” value (PBMAPCI 50 mg/kg iv qwk × 4) was “Significant against vehicle (p ≤ 0.001)”. It also gave a T-C (PBMAPCI 50 mg/kg iv qwk × 4) of 63 days and a TGD (PBMAPCI 50 mg/kg iv qwk × 4) of 252%.
In the case of CNCc1ccc(-c2[nH]c3cc(F)cc4c3c2CCNC4=O)cc1 [rucaparib], the “Median TTE” value [1] is reported as 39, the “Regressions CR” value [1] is reported as 0% and the “Regressions PR” value [1] is reported as 0%. For the same compound, the “Regressions TFS” value [1] was 0%, the “Statistical Results For Groups Tested” value [1] was “Significant against vehicle (p ≤ 0.05)” and the T-C [1] was 14 days. For the same compound, the TGD [1] was 56%, the “Median TTE” value [2] was 43 and the “Regressions CR” value [2] was 0%. The “Regressions PR” value [2] was 0%, the “Regressions TFS” value [2] was 0% and the “Statistical Results For Groups Tested” value [2] was “Significant against vehicle (p ≤ 0.01)”. The T-C [2] was 18 days, the TGD [2] was 73% and the “efficacy (mean tumor volumes, FIG. 1)” value (single agent, at both the 30 mg/kg and 150 mg/kg dosages) was “only marginally effective”.
